Test results as given in the supplement of paper PMC4862054.

How the values were obtained:
Settings in all cases: incubation time: 72 h
CAL-120 = assay: normalised viability (% of control), CellTiter-Blue; higher = more viable cells (about 100 = DMSO control)
Summary of the method: (§1)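 The reported figure is normalised viability at a single listed concentration of the series. Breast cancer cell lines (20 µl suspension) went onto 384-well plates holding compound in 5 µl medium for 72 h. CellTiter-Blue (2.5 µl, 2 h, 37 °C) was read by fluorescence at 560/590 nm, and each plate was scaled to vehicle at 100 and a positive kill control at 0.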

MDA-MB-468 = assay: as above
Summary of the method: as §1

CAL-148 [1] = assay: as above
Summary of the method: as §1

HCC1599 [2] = assay: as above
Summary of the method: as §1

SK-BR-3 = assay: as above
Summary of the method: as §1

HCC1143 [3] = assay: as above
Summary of the method: as §1

MDA-MB-436 [4] = assay: as above
Summary of the method: as §1

MFM-223 = assay: as above
Summary of the method: as §1

BT-474 = assay: as above
Summary of the method: as §1

Hs578T = assay: as above
Summary of the method: as §1

CAL-85-1 [5] = assay: as above
Summary of the method: as §1

BT-549 [6] = assay: as above
Summary of the method: as §1

HDQ-P1 = assay: as above
Summary of the method: as §1

MDA-MB-453 = assay: as above
Summary of the method: as §1

CAL-51 [7] = assay: as above
Summary of the method: as §1

MDA-MB-231 = assay: as above
Summary of the method: as §1

CAL-148 [8] = assay: drug sensitivity score (DSS), CellTiter-Glo (DSS (AUC-based score)); higher = stronger drug effect (viability inhibition or cytotoxicity); extreme values may be limits of the assay
Summary of the method: (§2)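 Plates with 384 wells held compound at 5 concentrations in 10-fold steps over a 10,000-fold range specific to each compound. Breast cancer cell lines were added in 20 µl suspension and incubated 72 h, then read for CellTox Green and CellTiter-Glo signals, with each plate normalised to 0.1 % DMSO and a positive kill control. The drug sensitivity score is based on the area under the fitted dose-response curve.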

MCF-10A = assay: as above
Summary of the method: as §2

HCC1599 [9] = assay: as above
Summary of the method: as §2

HCC1143 [10] = assay: as above
Summary of the method: as §2

MDA-MB-436 [11] = assay: as above
Summary of the method: as §2

CAL-85-1 [12] = assay: as above
Summary of the method: as §2

BT-549 [13] = assay: as above
Summary of the method: as §2

CAL-51 [14] = assay: as above
Summary of the method: as §2

COCC1(CO)C(=O)C2CCN1CC2 (stereo unspecified) [Prima-1 Met]
normalised viability [%]
Settings	3 nM	10 nM	30 nM	100 nM	1000 nM	10000 nM
BT-474	–	109	–	–	98.5	40.4
BT-549 [6]	–	105	–	–	87.8	109
CAL-51 [7]	93.7	–	93.2	96.4	–	–
CAL-85-1 [5]	91.3	–	78.1	103	–	–
CAL-120	–	85	–	–	99.8	102
CAL-148 [1]	93.3	–	93	89.2	–	–
HCC1143 [3]	–	82.3	–	–	73.2	75.2
HCC1599 [2]	–	93.4	–	–	120	106
HDQ-P1	91.3	–	81.2	74.4	–	–
Hs578T	–	110	–	–	106	88.9
MDA-MB-231	–	95.4	–	–	92.7	88.7
MDA-MB-436 [4]	–	86.9	–	–	81.9	104
MDA-MB-453	95.4	–	107	98	–	–
MDA-MB-468	–	104	–	–	115	104
MFM-223	–	103	–	–	91.3	111
SK-BR-3	–	96.1	–	–	101	90.8

Settings	drug sensitivity score
BT-549 [13]	2.79
CAL-51 [14]	0
CAL-85-1 [12]	0
CAL-148 [8]	0
HCC1143 [10]	0
HCC1599 [9]	0
MCF-10A	0
MDA-MB-436 [11]	0
